Test results from patent US7700592B2, “α2C adrenoreceptor agonists” (Schering Corporation, priority 2005, dated 2010).

biological target: T1, α2C receptor (Homo sapiens, UniProt P18825); experiment: GTPγS assay, efficacy agonist activity (Emax) for α2C; format: biochemical; conditions: active agonist = efficacy at α2C ≧30% Emax; functionally selective = additionally efficacy at α2A ≦30% Emax (GTPγS assay)
T1 sequence (P18825 1-462): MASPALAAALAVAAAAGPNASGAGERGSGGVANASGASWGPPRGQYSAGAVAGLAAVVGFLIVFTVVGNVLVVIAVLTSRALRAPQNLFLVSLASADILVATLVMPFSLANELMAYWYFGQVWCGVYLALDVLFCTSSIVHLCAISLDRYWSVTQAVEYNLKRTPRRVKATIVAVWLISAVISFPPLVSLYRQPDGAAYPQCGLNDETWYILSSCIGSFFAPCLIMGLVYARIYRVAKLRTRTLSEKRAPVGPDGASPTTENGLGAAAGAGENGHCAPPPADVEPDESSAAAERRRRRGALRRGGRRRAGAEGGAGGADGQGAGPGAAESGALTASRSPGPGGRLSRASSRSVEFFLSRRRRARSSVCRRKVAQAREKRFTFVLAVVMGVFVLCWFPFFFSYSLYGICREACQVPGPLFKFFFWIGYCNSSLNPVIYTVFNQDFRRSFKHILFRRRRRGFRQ
Description: For the purposes of this present invention, a compound is defined to be an active agonist of the α2C receptor subtype if the compound's efficacy at the α2C receptor is ≧30% Emax (GTPγS assay). A compound is a functionally selective agonist of the α2C receptor subtype over the α2A receptor subtype if the compound's efficacy at the α2C receptor is ≧30% Emax (GTPγS assay) and its efficacy at the α2A receptor is ≦30% Emax (GTPγS assay).
Efficacy agonist activity values (Emax, GTPγS assay) for α2C were determined by following the general procedure detailed by Umland et al (“Receptor reserve analysis of the human α2c-adrenoceptor using [^35S]GTPγS and cAMP functional assays” European Journal of Pharmacology 2001, 411, 211-221). For the purposes of the present invention, a compound is defined to be an active agonist of the α2C receptor subtype if the compound's efficacy at the α2C receptor is ≧30% Emax (GTPγS assay). A compound is a functionally selective agonist of the α2C receptor subtype over the α2A receptor subtype if the compound's efficacy at the α2C receptor is […] Emax (GTPγS assay) and its efficacy at the α2A receptor is ≦30% Emax (GTPγS assay).

| SMILES | Efficacy agonist activity (Emax, GTPγS assay) for α2C: evaluated as active or functionally selective agonist |
| --- | --- |
| CCN(C(=O)NC)c1cc(Cl)c2c(c1)N(Cc1c[nH]cn1)CCO2 [Compound 236] | active or functionally selective agonists of the α2C receptor subtype |
| CCCN(C(=O)NC)c1ccc2c(c1)N(Cc1c[nH]cn1)CCO2 [Compound 238] | active or functionally selective agonists of the α2C receptor subtype |
| CNC(=O)N(C)c1cc(C)c2c(c1)N(Cc1c[nH]cn1)CCO2 [Compound 239] | active or functionally selective agonists of the α2C receptor subtype |
| COC(=O)N(C)c1cc(C)c2c(c1)N(Cc1c[nH]cn1)CCO2 [Compound 240] | active or functionally selective agonists of the α2C receptor subtype |
| COCC(=O)N(C)c1ccc2c(c1)N(Cc1c[nH]cn1)CCO2 [Compound 242] | active or functionally selective agonists of the α2C receptor subtype |
| CONC(=O)N(C)c1ccc2c(c1)N(Cc1c[nH]cn1)CCO2 [Compound 243] | active or functionally selective agonists of the α2C receptor subtype |
| CCN(C(=O)NOC)c1ccc2c(c1)N(Cc1c[nH]cn1)CCO2 [Compound 244] | active or functionally selective agonists of the α2C receptor subtype |
| CCNC(=O)N(CC)c1ccc2c(c1)N(Cc1c[nH]cn1)CCO2 [Compound 245] | active or functionally selective agonists of the α2C receptor subtype |
| COCCCOC(=O)Nc1ccc2c(c1)N(Cc1c[nH]cn1)CCO2 [Compound 246] | active or functionally selective agonists of the α2C receptor subtype |
| N#CCCOC(=O)Nc1ccc2c(c1)N(Cc1c[nH]cn1)CCO2 [Compound 247] | active or functionally selective agonists of the α2C receptor subtype |
| N#Cc1ccc(COC(=O)Nc2ccc3c(c2)N(Cc2c[nH]cn2)CCO3)cc1 [Compound 248] | active or functionally selective agonists of the α2C receptor subtype |
| CSCCOC(=O)Nc1ccc2c(c1)N(Cc1c[nH]cn1)CCO2 [Compound 249] | active or functionally selective agonists of the α2C receptor subtype |
| CS(=O)(=O)CCOC(=O)Nc1ccc2c(c1)N(Cc1c[nH]cn1)CCO2 [Compound 250] | active or functionally selective agonists of the α2C receptor subtype |
| CCN(C(=O)C#CC1CC1)c1ccc2c(c1)N(Cc1c[nH]cn1)CCO2 [Compound 251] | active or functionally selective agonists of the α2C receptor subtype |
| N#Cc1cc(Cl)c2c(c1)N(Cc1c[nH]cn1)CCO2 [Compound 253] | active or functionally selective agonists of the α2C receptor subtype |
| CCCCOC(=O)N(C)c1ccc2c(c1)N(Cc1c[nH]cn1)CCO2 [Compound 256] | active or functionally selective agonists of the α2C receptor subtype |
| CCCOC(=O)N(C)c1ccc2c(c1)N(Cc1c[nH]cn1)CCO2 [Compound 257] | active or functionally selective agonists of the α2C receptor subtype |

| SMILES | Efficacy agonist activity (Emax, GTPγS assay) for α2C: evaluated as active or functionally selective agonist |
| --- | --- |
| CN(C(=O)CCCOc1ccccc1)c1ccc2c(c1)N(Cc1c[nH]cn1)CCO2 [Compound 259] | active or functionally selective agonists of the α2C receptor subtype |
| COCCOCC(=O)N(C)c1ccc2c(c1)N(Cc1c[nH]cn1)CCO2 [Compound 260] | active or functionally selective agonists of the α2C receptor subtype |
| CC#CCOC(=O)N(C)c1ccc2c(c1)N(Cc1c[nH]cn1)CCO2 [Compound 262] | active or functionally selective agonists of the α2C receptor subtype |
| CCCCCCOC(=O)N(C)c1ccc2c(c1)N(Cc1c[nH]cn1)CCO2 [Compound 263] | active or functionally selective agonists of the α2C receptor subtype |
| CCCOC(=O)N(CC)c1ccc2c(c1)N(Cc1c[nH]cn1)CCO2 [Compound 264] | active or functionally selective agonists of the α2C receptor subtype |
| CCCCOC(=O)N(CC)c1ccc2c(c1)N(Cc1c[nH]cn1)CCO2 [Compound 265] | active or functionally selective agonists of the α2C receptor subtype |
| C=CCS(=O)(=O)Nc1ccc2c(c1)N(Cc1c[nH]cn1)CCO2 [Compound 266] | active or functionally selective agonists of the α2C receptor subtype |
| CCCOC(=O)Nc1ccc2c(c1)N(Cc1c[nH]cn1)CCO2 [Compound 271] | active or functionally selective agonists of the α2C receptor subtype |
| CCCCOC(=O)Nc1ccc2c(c1)N(Cc1c[nH]cn1)CCO2 [Compound 272] | active or functionally selective agonists of the α2C receptor subtype |
| CCCCCCNC(=O)N(C)c1ccc2c(c1)N(Cc1c[nH]cn1)CCO2 [Compound 273] | active or functionally selective agonists of the α2C receptor subtype |
| CCN(C(=O)NCc1ccco1)c1ccc2c(c1)N(Cc1c[nH]cn1)CCO2 [Compound 274] | active or functionally selective agonists of the α2C receptor subtype |
| CCN(C(=O)OCc1cccnc1)c1ccc2c(c1)N(Cc1c[nH]cn1)CCO2 [Compound 275] | active or functionally selective agonists of the α2C receptor subtype |
| CCN(C(=O)OCc1ccncc1)c1ccc2c(c1)N(Cc1c[nH]cn1)CCO2 [Compound 276] | active or functionally selective agonists of the α2C receptor subtype |
| CCN(C(=O)OCc1cc(C)on1)c1ccc2c(c1)N(Cc1c[nH]cn1)CCO2 [Compound 278] | active or functionally selective agonists of the α2C receptor subtype |
| CCN(C(=O)OCc1ccncc1N)c1ccc2c(c1)N(Cc1c[nH]cn1)CCO2 [Compound 279] | active or functionally selective agonists of the α2C receptor subtype |
| CCN(C(=O)NCc1ccccc1)c1ccc2c(c1)N(Cc1c[nH]cn1)CCO2 [Compound 280] | active or functionally selective agonists of the α2C receptor subtype |
| CCN(C(=O)OCc1cnc(N)nc1)c1ccc2c(c1)N(Cc1c[nH]cn1)CCO2 [Compound 281] | active or functionally selective agonists of the α2C receptor subtype |
